Test results taken from paper PMC7771846 (Biomolecules & Therapeutics, 2020).

Target: Hsp90α (Homo sapiens, UniProt P07900)
Experiment: SPR
Type: binding

CN1C(=O)[C@@]23C[C@]4([C@]56C[C@@]78SS[C@@](CO)(C(=O)N7[C@H]5Nc5ccccc56)N(C)C8=O)c5ccccc5N[C@@H]4N2C(=O)[C@]1(CO)SS3 [Chaetocin]
Kd: 2820 nM
